Reference: patent publication US8551921B2, “Method for determining the toxicity of an environmental or chemical sample” (priority 2000, dated 2013)
Values joined by “and” are separate entries in the source; they are usually repeats but may differ in a detail not shown here. Equal values may be shown once. Where a name gives a salt, the structure may show the parent alone. Read-outs that look alike come from different tables or passages of the source.

Experiments:
[1] = system: Photobacterium phosphoreum; conditions: IC50-values, established assay; cited from earlier work
[2] = system: E. coli; conditions: IC50-values, established assay; cited from earlier work
[3] = system: Daphnia; conditions: IC50-values, established assay; cited from earlier work
[4] = system: 11 different microbial strains; conditions: for Toxic fingerprint: MTC value, Mean: mean of all 11 MTC values
Protocol: (§1) • dispense 150 μl of growth medium with indicator in each well • add a concentration gradient of the chemical to be tested to rows B-H in a MARA plate (i.e. an indicator device according to the present invention) • incubate for 16 h • read absorbance values; and • analyse with software.
(§2) Microbial responses to different chemicals was estimated by kinetic measurements of their growth using the Labsystem automated IEMS reader. A computer software that could monitor incubation temperatures, reading intervals, and automatically transfer OD data to a computer was developed. A growth medium containing 0.05% peptone, 0.011% bromothymol blue (BTB), 1% sodium chloride and 0.3% glucose was added to all wells. The glucose acts as a carbon source, and during growth the microorganism will break down the glucose and produce acids, that will turn the initially blue indicator to yellow. Each microplate contains 12 columns and 8 rows, and thus in each plate, 11 lyophilized microbial strains were used (one for each column, the 12th column was used as negative control). […] In order to avoid drying out of the plates during the incubation, one drop of sterile mineral oil was added to each well. The plate was then incubated in the IEMS spectrophotometer and the absorbance value from each well was measured every second hour during 48 h.
(§3) The overall toxicity of the chemical compound can be described either as the mean of all 11 MTC values (shown in column 12), or as the minimum value for all 11 microbial strains used in the assay (marked with bold in the table).
Concentrations are given in mg/ml.

[5] = system: E. coli MZ 480; assay: MARA indicator device toxic fingerprint, microorganism no. 8; conditions: Microbial Toxic Concentration, incubation time 16 h
Protocol: as §1, §2, §3

[6] = system: Staphylococcus epidermidis (Karin12); assay: MARA indicator device toxic fingerprint, microorganism no. 11; conditions: Microbial Toxic Concentration; incubation time 16 h
Protocol: as §1, §2, §3

[7] = system: Saccaromyces ceriviciae (bakers yeast); conditions: Microbial Toxic Concentration; incubation time 16 h
Protocol: as §1, §2, §3

[8] = system: ObanF; conditions: Microbial Toxic Concentration; incubation time 16 h
Protocol: as §1, §2, §3

[9] = system: JG4 (strain of marine origin); conditions: Microbial Toxic Concentration; incubation time 16 h
Protocol: as §1, §2, §3

[10] = system: JG2 (strain of marine origin); conditions: Microbial Toxic Concentration; incubation time 16 h
Protocol: as §1, §2, §3

[11] = system: Aeromonas hydriphila HG3 (RV 5.1); conditions: Microbial Toxic Concentration; incubation time 16 h
Protocol: as §1, §2, §3

[12] = system: JG1 (strain of marine origin); conditions: Microbial Toxic Concentration, incubation time 16 h
Protocol: as §1, §2, §3

[13] = system: JG3 (strain of marine origin); assay: MARA indicator device toxic fingerprint, microorganism no. 3; conditions: Microbial Toxic Concentration; incubation time 16 h
Protocol: as §1, §2, §3

[14] = system: microorganism no. 7; assay: MARA indicator device toxic fingerprint, microorganism no. 7; conditions: Microbial Toxic Concentration; incubation time 16 h
Protocol: as §1, §2, §3

[15] = system: β-proteobacterium A22 (Kalmar 200); assay: MARA indicator device toxic fingerprint, microorganism no. 5; conditions: Microbial Toxic Concentration; incubation time 16 h
Protocol: as §1, §2, §3

[16] = 11 microbial strains (panel, species not named)
[17] = MTC value of the strain showing the highest sensitivity
[18] = mean MTC for the 11 microbial strains

Compound	Inhibitory concentrations by method: Microtox [1] [mg/mL]	Inhibitory concentrations by method: Daphnia [3] [mg/mL]	Toxic fingerprint: MTC value for microorganism no. 8 [5]	Toxic fingerprint: MTC value for microorganism no. 11 [6]	Toxic fingerprint: MTC value for microorganism no. 10 [7]	Toxic fingerprint: MTC value for microorganism no. 9 [8]	Toxic fingerprint: MTC value for microorganism no. 4 [9]	Toxic fingerprint: MTC value for microorganism no. 2 [10]	Toxic fingerprint: MTC value for microorganism no. 6 [11]	Toxic fingerprint: MTC value for microorganism no. 1 [12]	Toxic fingerprint: MTC value for microorganism no. 3 [13]	Toxic fingerprint: MTC value for microorganism no. 7 [14]	Toxic fingerprint: MTC value for microorganism no. 5 [15]	Toxic fingerprint: MTC value, Mean [4]	other results
Oc1ccccc1 [Phenol]	0.133	0.007													Inhibitory concentrations by method: E. coli [2]: 2.258 mg/mL; Inhibitory concentrations by method: MARA MTCmin [4]: 0.412 mg/mL; Inhibitory concentrations by method: MARA MTCmean [4, 16]: 0.831 mg/mL
[Cl-].[Cl-].[Mg+2] [Magnesium Chloride]			24.100	4.580	22.700	8.830	7.500	9.660	13.500	28.800	7.420	12.100	14.800	13.900	
C=CC(N)=O [Acryl amide]			17.700 and 23.300	8.300 and 10.300	6.620 and 6.970	13.900 and 11.000	2.100 and 2.510	2.440 and 1.810	2.480 and 2.810	0.965 and 0.853	4.280 and 3.370		5.740 and 3.240	4.700 and 4.690	Toxic fingerprint: MTC value for microorganism no. 8 ([5]; listed as acrylamid): 20; Toxic fingerprint: MTC value for microorganism no. 1 ([12]; listed as acrylamid): 0.9
[Cl-].[K+] [Potassium Chloride]			62.300	31.300	16.000	65.400	17.000	29.400	27.100	28.200	10.600	67.300	20.100	29.800	
Cc1ccccc1C(OCCN(C)C)c1ccccc1 (stereo not drawn) [Orphenadrin HCl]															Toxic fingerprint: MTC value, Mean ([4]; HCl): 0.131 and 0.146
C[C@H]1O[C@@H](O[C@H]2[C@@H](O)C[C@H](O[C@H]3[C@@H](O)C[C@H](O[C@H]4CC[C@@]5(C)[C@H](CC[C@@H]6[C@@H]5C[C@@H](O)[C@]5(C)[C@@H](C7=CC(=O)OC7)CC[C@]65O)C4)O[C@@H]3C)O[C@@H]2C)C[C@H](O)[C@@H]1O [Digoxin]	1.129	0.192	0.310	0.104	2.510	0.201	0.942	0.937	0.531	1.040	0.481	0.921	0.927	0.8 and 0.770	Inhibitory concentrations by method: MARA MTCmin [4, 17]: 0.104 mg/mL; Inhibitory concentrations by method: MARA MTCmean [4, 18]: 0.770 mg/mL
OCCO [Ethylene Glycol]	167.064	74.625													Inhibitory concentrations by method: E. coli [2]: 270.945 mg/mL; Inhibitory concentrations by method: MARA MTCmin [4]: 11.775 mg/mL; Inhibitory concentrations by method: MARA MTCmean [4, 16]: 28.400 mg/mL
CN1[C@@H]2CC[C@H]1CC(OC(=O)C(CO)c1ccccc1)C2.CN1[C@@H]2CC[C@H]1CC(OC(=O)C(CO)c1ccccc1)C2.O=S(=O)(O)O (stereo partly drawn) [Atropin Sulphate]		0.347													Inhibitory concentrations by method: E. coli [2]: 56.294 mg/mL
O=[N+]([O-])[O-].O=[N+]([O-])[O-].[Ba+2] [Barium nitrate]	29.318	0.208	1.360	0.466	0.453	1.490	5.620	0.205	0.713	2.520	0.908	1.110	1.090	1.420	Inhibitory concentrations by method: MARA MTCmin [4, 17]: 0.453 mg/mL; Inhibitory concentrations by method: MARA MTCmean [4, 18]: 1.420 mg/mL; mean toxicity levels (MTC values) ([4]; text to FIG. 7): 1.4 mg/L
CSc1ccc2c(c1)N(CCC1CCCCN1C)c1ccccc1S2 (stereo not drawn) [Tioridazin HCl]			0.006	0.006	0.014			0.017	0.027			0.042	0.029	0.028	Inhibitory concentrations by method: MARA MTCmin [4, 17]: 0.006 mg/mL; Inhibitory concentrations by method: MARA MTCmean [4, 18]: 0.028 mg/mL
[N-]=[N+]=[N-] [Sodium Azide]			0.592	0.146	0.106	2.000	0.088	0.045	0.082	0.025	0.056	0.126	0.054	0.111	
